Measured values taken from PubChem BioAssay AID248 (DTP/NCI, 2004).
Several values for one entry are separate records, joined by “and”; a condition that tells them apart may be missing. Equal entries are not always repeated. Toxic doses and inconclusive results are not listed. Cut-off read from the data, not from the text of the source: active = T/C of 150% or more; inactive = T/C below 125%.

System: L1210 leukemia ip in BDF1 mice, survival T/C
Test: NCI In Vivo Anticancer Drug Screen. Data for tumor model L1210 Leukemia (intraperitoneal) in B6D2F1 (BDF1) mice
Conditions: higher = longer survival
Summary of the method: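 Each compound was tested against a transplantable tumor grown in mice. The endpoint was survival, with treated animals benchmarked against vehicle controls as a simple ratio.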

[1] = endpoint: mean survival time, dose: 12.5 mg/kg/injection, schedule: Q01DX009 (ip), vehicle: saline with Tween-80
[2] = endpoint: mean survival time, dose: 25.0 mg/kg/injection, schedule: Q01DX009 (ip), vehicle: saline with Tween-80
[3] = endpoint: mean survival time, dose: 100.0 mg/kg/injection, schedule: Q01DX001 (ip), vehicle: carboxymethylcellulose (CMC)
[4] = endpoint: mean survival time, dose: 200.0 mg/kg/injection, schedule: Q01DX001 (ip), vehicle: carboxymethylcellulose (CMC)
[5] = endpoint: mean survival time, dose: 400.0 mg/kg/injection, schedule: Q01DX001 (ip), vehicle: carboxymethylcellulose (CMC)
[6] = endpoint: mean survival time, dose: 12.5 mg/kg/injection, schedule: Q04DX003 (ip), vehicle: saline
[7] = endpoint: mean survival time, dose: 100.0 mg/kg/injection, schedule: Q01DX001 (ip), vehicle: saline
[8] = endpoint: mean survival time, dose: 200.0 mg/kg/injection, schedule: Q01DX001 (ip), vehicle: saline
[9] = endpoint: mean survival time, dose: 400.0 mg/kg/injection, schedule: Q01DX001 (ip), vehicle: saline
[10] = endpoint: mean survival time, dose: 100.0 mg/kg/injection, schedule: Q04DX003 (ip), vehicle: saline
[11] = endpoint: mean survival time, dose: 200.0 mg/kg/injection, schedule: Q04DX003 (ip), vehicle: saline
[12] = endpoint: mean survival time, dose: 400.0 mg/kg/injection, schedule: Q04DX003 (ip), vehicle: saline
[13] = endpoint: mean survival time, dose: 100.0 mg/kg/injection, schedule: Q04DX002 (ip), vehicle: saline
[14] = endpoint: mean survival time, dose: 200.0 mg/kg/injection, schedule: Q04DX002 (ip), vehicle: saline
[15] = endpoint: mean survival time, dose: 400.0 mg/kg/injection, schedule: Q04DX002 (ip), vehicle: saline
[16] = endpoint: mean survival time, dose: 100.0 mg/kg/injection, schedule: Q04DX003 (ip), vehicle: saline with Tween-80
[17] = endpoint: mean survival time, dose: 200.0 mg/kg/injection, schedule: Q04DX003 (ip), vehicle: saline with Tween-80
[18] = endpoint: mean survival time, dose: 400.0 mg/kg/injection, schedule: Q04DX003 (ip), vehicle: saline with Tween-80
[19] = endpoint: mean survival time, dose: 100.0 mg/kg/injection, schedule: Q01DX009 (ip), vehicle: Klucel (hydroxypropylcellulose) (HPC)
[20] = endpoint: mean survival time, dose: 100.0 mg/kg/injection, schedule: Q04DX003 (ip), vehicle: Klucel (hydroxypropylcellulose) (HPC)
[21] = endpoint: mean survival time, dose: 200.0 mg/kg/injection, schedule: Q04DX003 (ip), vehicle: Klucel (hydroxypropylcellulose) (HPC)
[22] = endpoint: mean survival time, dose: 400.0 mg/kg/injection, schedule: Q04DX003 (ip), vehicle: Klucel (hydroxypropylcellulose) (HPC)

Measured: T/C

CC(=O)OC1C(C)OC(OC2C=C3CCC4C(CCC5(C)C(c6ccc(=O)oc6)CCC45O)C3(C)CC2)C(OC(C)=O)C1OC(C)=O (stereo not given)
inactive: endpoint: mean survival time, dose: 6.25 mg/kg/injection, schedule: Q01DX009 (ip), vehicle: saline with Tween-80 102 % of control | [1] 100 % of control | endpoint: mean survival time, dose: 12.5 mg/kg/injection, schedule: Q04DX003 (ip), vehicle: saline with Tween-80 105 % of control | [2] 103 % of control | endpoint: mean survival time, dose: 25.0 mg/kg/injection, schedule: Q04DX003 (ip), vehicle: saline with Tween-80 105 % of control

O=C(O)c1ccc(C(Cl)C(Cl)(Cl)Cl)cc1O (stereo not given)
inactive: [3] 92 % of control | [4] 94 % of control | [5] 96 % of control

CCCC[CH2][Sn](=[O])[CH2]CCCC
inactive: [6] 101 % of control | endpoint: mean survival time, dose: 25.0 mg/kg/injection, schedule: Q04DX003 (ip), vehicle: saline 101 % of control | endpoint: mean survival time, dose: 50.0 mg/kg/injection, schedule: Q04DX003 (ip), vehicle: saline 108 % of control | [7] 109 % of control | [8] 104 % of control | [9] 98 % of control

CN(C)[C@@H]1C(=O)C(C(=O)NCNCCCC(=O)O)=C(O)[C@@]2(O)C(=O)C3=C(O)c4c(O)cccc4[C@@](C)(O)[C@H]3C[C@@H]12
inactive: endpoint: mean survival time, dose: 100.0 mg/kg/injection, schedule: Q01DX009 (ip), vehicle: saline 103 % of control | [10] 105 % of control | endpoint: mean survival time, dose: 200.0 mg/kg/injection, schedule: Q01DX009 (ip), vehicle: saline 102 % of control | [11] 96 % of control | endpoint: mean survival time, dose: 400.0 mg/kg/injection, schedule: Q01DX009 (ip), vehicle: saline 94 % of control | [12] 96 % of control

CCCCCC[C@@H](O)C/C=C\CCCCCCCC(=O)OCCO
inactive: endpoint: median survival time, dose: 25.0 mg/kg/injection, schedule: Q01DX009 (ip), vehicle: saline 101 % of control | endpoint: median survival time, dose: 50.0 mg/kg/injection, schedule: Q01DX009 (ip), vehicle: saline 100 % of control | endpoint: median survival time, dose: 100.0 mg/kg/injection, schedule: Q01DX009 (ip), vehicle: saline 120 % of control | endpoint: median survival time, dose: 200.0 mg/kg/injection, schedule: Q01DX009 (ip), vehicle: saline 106 % of control | endpoint: median survival time, dose: 400.0 mg/kg/injection, schedule: Q01DX009 (ip), vehicle: saline 106 % of control | endpoint: median survival time, dose: 800.0 mg/kg/injection, schedule: Q01DX009 (ip), vehicle: saline 101 % of control

CC1N=C1c1ccccc1 (stereo not given)
inactive: [13] 102 % of control | [14] 115 % of control | [15] 105 % of control

Nc1nc(C=O)c(Cc2ccc3ccccc3c2)c(=O)[nH]1
inactive: [16] 100 % of control | [17] 108 % of control | [18] 110 % of control

O=C(O)COc1ccccc1
inactive: endpoint: mean survival time, dose: 25.0 mg/kg/injection, schedule: Q01DX009 (ip), vehicle: Klucel (hydroxypropylcellulose) (HPC) 108 % of control | endpoint: mean survival time, dose: 50.0 mg/kg/injection, schedule: Q01DX009 (ip), vehicle: Klucel (hydroxypropylcellulose) (HPC) 105 % of control | [19] 93 % of control and 88 % of control

O=C(Nc1cccc(C(F)(F)F)c1)C(O)C(O)C(O)C(O)CO (stereo not given)
inactive: [10] 91 % of control | [11] 94 % of control | [12] 91 % of control

COc1ccc(OC)c(NC(=O)Oc2ccc3c(C)cc(=O)oc3c2)c1
inactive: [19] 101 % of control | endpoint: mean survival time, dose: 200.0 mg/kg/injection, schedule: Q01DX009 (ip), vehicle: Klucel (hydroxypropylcellulose) (HPC) 97 % of control | endpoint: mean survival time, dose: 400.0 mg/kg/injection, schedule: Q01DX009 (ip), vehicle: Klucel (hydroxypropylcellulose) (HPC) 87 % of control

CN(C)P(Cl)(Cc1ccccc1)(c1ccccc1)c1ccccc1
inactive: endpoint: mean survival time, dose: 3.12 mg/kg/injection, schedule: Q01DX009 (ip), vehicle: saline 106 % of control | endpoint: mean survival time, dose: 6.25 mg/kg/injection, schedule: Q01DX009 (ip), vehicle: saline 105 % of control | [6] 106 % of control

Cc1ccc(CCS(=O)(=O)N=[N+]=[N-])cc1
inactive: [7] 101 % of control | [8] 97 % of control | [9] 101 % of control

O=C(Nc1ccccc1F)Oc1ccc(C2CCCCC2)cc1
inactive: endpoint: mean survival time, dose: 100.0 mg/kg/injection, schedule: Q01DX009 (ip), vehicle: saline with Tween-80 104 % of control | endpoint: mean survival time, dose: 200.0 mg/kg/injection, schedule: Q01DX009 (ip), vehicle: saline with Tween-80 104 % of control | endpoint: mean survival time, dose: 400.0 mg/kg/injection, schedule: Q01DX009 (ip), vehicle: saline with Tween-80 101 % of control

Cc1ccc(N=Nc2ccc(C)cc2NC(=O)Nc2cc([N+](=O)[O-])ccc2F)cc1
inactive: [13] 93 % of control | [14] 108 % of control | [15] 90 % of control

O=C(/C=C/c1cccc([N+](=O)[O-])c1)c1ccccc1[N+](=O)[O-]
inactive: endpoint: mean survival time, dose: 100.0 mg/kg/injection, schedule: Q04DX002 (ip), vehicle: Klucel (hydroxypropylcellulose) (HPC) 103 % of control | endpoint: mean survival time, dose: 200.0 mg/kg/injection, schedule: Q04DX002 (ip), vehicle: Klucel (hydroxypropylcellulose) (HPC) 103 % of control | endpoint: mean survival time, dose: 400.0 mg/kg/injection, schedule: Q04DX002 (ip), vehicle: Klucel (hydroxypropylcellulose) (HPC) 100 % of control

COC(=O)c1sc2ccccc2c1CC#N
inactive: [3] 103 % of control | [4] 86 % of control | [5] 103 % of control

ClC(Cl)(Cl)C(Cl)(Cl)OC(Cl)(Cl)C(Cl)(Cl)Cl
inactive: endpoint: mean survival time, dose: 100.0 mg/kg/injection, schedule: Q01DX001 (ip), vehicle: Klucel (hydroxypropylcellulose) (HPC) 107 % of control | [20] 100 % of control | endpoint: mean survival time, dose: 200.0 mg/kg/injection, schedule: Q01DX001 (ip), vehicle: Klucel (hydroxypropylcellulose) (HPC) 112 % of control | [21] 92 % of control | endpoint: mean survival time, dose: 400.0 mg/kg/injection, schedule: Q01DX001 (ip), vehicle: Klucel (hydroxypropylcellulose) (HPC) 95 % of control | [22] 95 % of control

NC(=S)/C(N)=N/Nc1ccc(Cl)cc1
inactive: [1] 92 % of control | endpoint: mean survival time, dose: 12.5 mg/kg/injection, schedule: Q01DX009 (ip), vehicle: saline 108 % of control | [2] 92 % of control | endpoint: mean survival time, dose: 25.0 mg/kg/injection, schedule: Q01DX009 (ip), vehicle: saline 120 % of control | endpoint: mean survival time, dose: 50.0 mg/kg/injection, schedule: Q01DX009 (ip), vehicle: saline 103 % of control

CCOP(=O)(OCC)/C(C#N)=C\c1ccc(OC)c(OC)c1
inactive: [16] 97 % of control | [17] 92 % of control | [18] 92 % of control

NC(=S)c1cccnc1
inactive: endpoint: mean survival time, dose: 50.0 mg/kg/injection, schedule: Q01DX003 (ip), vehicle: Klucel (hydroxypropylcellulose) (HPC) 94 % of control | endpoint: mean survival time, dose: 100.0 mg/kg/injection, schedule: Q01DX003 (ip), vehicle: Klucel (hydroxypropylcellulose) (HPC) 94 % of control | [20] 109 % of control | endpoint: mean survival time, dose: 200.0 mg/kg/injection, schedule: Q01DX003 (ip), vehicle: Klucel (hydroxypropylcellulose) (HPC) 97 % of control | [21] 111 % of control | [22] 109 % of control

O=[N+]([O-])c1ccc(Cn2cnc3c(Cl)ncnc32)cc1
inactive: endpoint: mean survival time, dose: 100.0 mg/kg/injection, schedule: Q01DX001 (ip), vehicle: other 90 % of control
